Source: PubChem BioAssay AID372 (MTDP, 2006)

Molecular target: Gag-Pol polyprotein (Human immunodeficiency virus type 1 group M subtype B (isolate HXB2)) (UniProt P04585)
Assay: RNase H inhibition, HIV 1 Gag Pol polyprotein, FRET biochemical assay, screening (AID 372)
Conditions: HIV-1 RT RNase H, FRET RNA/DNA substrate fluorescence

Cc1ccc(C(=O)NC(=S)Nc2ccc(-c3nc4ccccc4s3)cc2)cc1[N+](=O)[O-]
IC50: 20 µM
